# Data reported in publication PMC11878239, “Biochemical investigations using mass spectrometry to monitor JMJD6-catalysed hydroxylation of multi-lysine containing bromodomain-derived substrates” (RSC Chemical Biology, 2025).
# “Also recorded” adds a separate entry of the source.
# Target: T1, full-length His6-JMJD6 (Homo sapiens, UniProt Q6NYC1)
# T1 construct: An enzyme mixture (10 μL) containing full-length His6-JMJD6 (5 μM; final concentration: 0.05 μM); made in house; host or cells: Escherichia coli BL21 (DE3), pET-28a(+) plasmid
# Assay: LC-MS of JMJD6-catalysed hydroxylation under 18O2 or in 18OH2
# Type: biochemical
# Conditions: 2OG 2 mM, FAS 20 μM, LAA 1 mM, peptide 50 μM, Tris pH 7.5, 24 h, room temperature
# Protocol: […] The assay solutions were transferred to a custom-made air-tight container, which was then sealed and removed from the anaerobic chamber. […] The container was evacuated and then filled with […] to a pressure of ∼700 mbar. […] The enzyme reactions were incubated for 24 h at room temperature, after which time the container was returned to the anaerobic chamber. The reactions were stopped by the addition of 10%v/v aqueous formic acid (20 μL) and analysed by LC–MS using an Agilent 1290 infinity II LC system comprising a 1290 infinity II multi-sampler and a 1290 infinity II high speed pump connected to an Agilent 6550 accurate mass iFunnel quadrupole time-of-flight (QTOF) mass spectrometer. Samples (6 μL) were injected onto a 2.1 × 50 mm, 1.8 μm ZORBAX RRHD Eclipse Plus C18 column equipped with a UHPLC guard column (Agilent; flow rate: 0.2 mL min^−1). […] Acquired data were analysed using Agilent MassHunter Qualitative Analysis (version B.07.00).
# Tris buffer, cofactor and BRD4_511–550 stock solutions were prepared using ^18OH2 (CK Isotopes) and JMJD6 was buffer exchanged into 50 mM Tris (pH 7.5) in ^18OH2. The enzyme reactions were incubated under an ambient atmosphere at room temperature for 24 h, after which the reactions were stopped by the addition of 10%v/v aqueous formic acid (20 μL) and analysed by LC–MS as described above.
sequence,measurement,setting,value
"LAELQEQLKAVHEQLAALSQPQQNKPKKKEKDKKEKKKEK [BRD4_511–550, 40-mer peptide fragment derived from human BRD4, JMJD6 substrate, prepared by SPPS]",incorporated oxygen in 18OH2,"16O2 atmosphere in 18OH2, JMJD6 2 μM",complete incorporation of ^16O from atmospheric O2
same,mass shifts / origin of incorporated oxygen under 18O2,"18O2 atmosphere in H2O, JMJD6 2 μM","successive +18 Da shifts; also recorded: originates, at least, predominantly from ^18O2; also recorded: originate predominantly from atmospheric O2"
